How the values were obtained:
[1] = molecular target: GDP-bound HRAS wild-type protein (Homo sapiens, UniProt P01112); assay: Binding to HRAS by surface plasmon resonance (SPR), Single Cycle Kinetics; details: SPR, GDP-bound HRAS wild-type vs GDP-bound KRAS wild-type
[2] = molecular target: GDP-bound NRAS wild-type protein (Homo sapiens, UniProt P01111); assay: Binding to NRAS by surface plasmon resonance (SPR), Single Cycle Kinetics; details: SPR, GDP-bound NRAS wild-type vs GDP-bound KRAS wild-type
Chain of GDP-bound NRAS wild-type protein (P01111 whole entry): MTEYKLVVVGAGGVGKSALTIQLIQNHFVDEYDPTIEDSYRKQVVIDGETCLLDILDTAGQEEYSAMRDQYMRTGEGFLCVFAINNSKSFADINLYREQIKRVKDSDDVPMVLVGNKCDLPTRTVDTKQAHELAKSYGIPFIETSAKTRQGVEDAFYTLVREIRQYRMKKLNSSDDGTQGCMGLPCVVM

Chain of GDP-bound HRAS wild-type protein (P01112 whole entry): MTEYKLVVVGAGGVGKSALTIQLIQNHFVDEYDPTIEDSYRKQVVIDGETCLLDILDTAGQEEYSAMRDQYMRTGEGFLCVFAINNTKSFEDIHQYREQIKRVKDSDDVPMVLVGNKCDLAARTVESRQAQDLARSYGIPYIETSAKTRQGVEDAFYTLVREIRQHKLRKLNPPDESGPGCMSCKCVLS

SMILES	HRAS/KRAS (ratio of KD value with respect to HRAS to KD value with respect to KRAS) [1]	NRAS/KRAS (ratio of KD value with respect to NRAS to KD value with respect to KRAS) [2]
CCO[C@@H]1C[C@H]2C(=O)NC3(CC(C)(C)C3)C(=O)N(C)[C@@H](C(CC)CC)C(=O)N(C)[C@H](C(=O)N(C)C)CC(=O)N(C)[C@@H](CC(C)C)C(=O)N[C@@H]([C@@H](C)CC)C(=O)N(C)CC(=O)N(C)[C@H]3C/C=C\CCN(C3=O)[C@@H](Cc3ccc(C)cc3)C(=O)N(C)CC(=O)N[C@@H](CCc3ccc(C(F)(F)F)c(Cl)c3)C(=O)N2C1 [PP2148]	A (a compound having 10 or more and less than 20 is denoted as A)	A (a compound having 10 or more and less than 20 is denoted as A)
CCO[C@@H]1C[C@H]2C(=O)NC3(CC(C)(C)C3)C(=O)N(C)[C@@H](C(CC)CC)C(=O)N(C)[C@H](C(=O)N3CCCC3)CC(=O)N(C)[C@@H](CC)C(=O)N[C@@H]([C@@H](C)CC)C(=O)N(C)CC(=O)N(C)[C@H]3C/C=C\CCN(C3=O)[C@@H](Cc3ccc(C)cc3)C(=O)N(C)CC(=O)N[C@@H](CCc3cc(F)c(C(F)(F)F)c(F)c3)C(=O)N2C1 [PP2149]	A (a compound having 10 or more and less than 20 is denoted as A)	A (a compound having 10 or more and less than 20 is denoted as A)
CCO[C@@H]1C[C@H]2C(=O)NC3(CC(C)(C)C3)C(=O)N(C)[C@@H](C(CC)CC)C(=O)N(C)[C@H](C(=O)N(C)C)CC(=O)N(C)[C@@H](C)C(=O)N[C@@H]([C@@H](C)CC)C(=O)N(C)CC(=O)N(C)[C@H]3C/C=C\CCN(C3=O)[C@@H](Cc3ccc(C)cc3)C(=O)N(C)CC(=O)N[C@@H](CCc3ccc(C(F)(F)F)c(Cl)c3)C(=O)N2C1 [PP2150]	A (a compound having 10 or more and less than 20 is denoted as A)	AA (a compound having 20 or more is denoted as AA)
CCO[C@@H]1C[C@H]2C(=O)NC3(CC(C)(C)C3)C(=O)N(C)[C@@H](C(CC)CC)C(=O)N(C)[C@H](C(=O)N(C)C)CC(=O)N(C)[C@@H](CC3CCC3)C(=O)N[C@@H]([C@@H](C)CC)C(=O)N(C)CC(=O)N(C)[C@H]3C/C=C\CCN(C3=O)[C@@H](Cc3ccc(C)cc3)C(=O)N(C)CC(=O)N[C@@H](CCc3cc(F)c(C(F)(F)F)c(F)c3)C(=O)N2C1 [PP2151]	A (a compound having 10 or more and less than 20 is denoted as A)	A (a compound having 10 or more and less than 20 is denoted as A)
CCO[C@@H]1C[C@H]2C(=O)NC3(CC(C)(C)C3)C(=O)N(C)[C@@H](C(CC)CC)C(=O)N(C)[C@H](C(=O)N3CCCC3)CC(=O)N(C)[C@@H](C)C(=O)N[C@@H]([C@@H](C)CC)C(=O)N(C)CC(=O)N(C)[C@H]3C/C=C\CCN(C3=O)[C@@H](Cc3ccc(C)cc3)C(=O)N(C)CC(=O)N[C@@H](CCc3ccc(C(F)(F)F)c(Cl)c3)C(=O)N2C1 [PP2152]	A (a compound having 10 or more and less than 20 is denoted as A)	AA (a compound having 20 or more is denoted as AA)
CCO[C@@H]1C[C@H]2C(=O)NC3(CC(C)(C)C3)C(=O)N(C)[C@@H](C(CC)CC)C(=O)N(C)[C@H](C(=O)N(C)C)CC(=O)N(C)[C@@H](C(C)C)C(=O)N[C@@H]([C@@H](C)CC)C(=O)N(C)CC(=O)N(C)[C@H]3C/C=C\CCN(C3=O)[C@@H](Cc3ccc(C)cc3)C(=O)N(C)CC(=O)N[C@@H](CCc3cc(F)c(C(F)(F)F)c(F)c3)C(=O)N2C1 [PP2153]	A (a compound having 10 or more and less than 20 is denoted as A)	A (a compound having 10 or more and less than 20 is denoted as A)
CCO[C@@H]1C[C@H]2C(=O)NC3(CC(C)(C)C3)C(=O)N(C)[C@@H](C(CC)CC)C(=O)N(C)[C@H](C(=O)N(C)C)CC(=O)N(C)[C@@H](CC)C(=O)N[C@@H]([C@@H](C)CC)C(=O)N(C)CC(=O)N(C)[C@H]3C/C=C\CCN(C3=O)[C@@H](Cc3ccc(C)cc3)C(=O)N(C)CC(=O)N[C@@H](CCc3ccc(C(F)(F)F)c(Cl)c3)C(=O)N2C1 [PP2154]	A (a compound having 10 or more and less than 20 is denoted as A)	A (a compound having 10 or more and less than 20 is denoted as A)
CCO[C@@H]1C[C@H]2C(=O)NC3(CC(C)(C)C3)C(=O)N(C)[C@@H](C(CC)CC)C(=O)N(C)[C@H](C(=O)N(C)C)CC(=O)N(C)[C@@H](CC3CC3)C(=O)N[C@@H]([C@@H](C)CC)C(=O)N(C)CC(=O)N(C)[C@H]3C/C=C\CCN(C3=O)[C@@H](Cc3ccc(C(F)(F)F)cc3)C(=O)N(C)CC(=O)N[C@@H](CCc3ccc(C(F)(F)F)c(OC)c3)C(=O)N2C1 [PP2155]	B (a compound having 3 or more and less than 10 is denoted as B)	A (a compound having 10 or more and less than 20 is denoted as A)
CCO[C@@H]1C[C@H]2C(=O)NC3(CC(C)(C)C3)C(=O)N(C)[C@@H](C(CC)CC)C(=O)N(C)[C@H](C(=O)N(C)C)CC(=O)N(C)[C@@H](CC3CCC3)C(=O)N[C@@H]([C@@H](C)CC)C(=O)N(C)CC(=O)N(C)[C@H]3C/C=C\CCN(C3=O)[C@@H](Cc3ccc(C)cc3)C(=O)N(C)CC(=O)N[C@@H](CCc3ccc(C(F)(F)F)c(Cl)c3)C(=O)N2C1 [PP2156]	A (a compound having 10 or more and less than 20 is denoted as A)	AA (a compound having 20 or more is denoted as AA)
CCO[C@@H]1C[C@H]2C(=O)NC3(CC(C)(C)C3)C(=O)N(C)[C@@H](C(CC)CC)C(=O)N(C)[C@H](C(=O)N(C)C)CC(=O)N(C)[C@@H](COC)C(=O)N[C@@H]([C@@H](C)CC)C(=O)N(C)CC(=O)N(C)[C@H]3C/C=C\CCN(C3=O)[C@@H](Cc3ccc(C(F)(F)F)cc3)C(=O)N(C)CC(=O)N[C@@H](CCc3ccc(C(F)(F)F)c(OC)c3)C(=O)N2C1 [PP2157]	A (a compound having 10 or more and less than 20 is denoted as A)	A (a compound having 10 or more and less than 20 is denoted as A)
CCO[C@@H]1C[C@H]2C(=O)NC3(CC(C)(C)C3)C(=O)N(C)[C@@H](C(CC)CC)C(=O)N(C)[C@H](C(=O)N(C)C)CC(=O)N(C)[C@@H](C(C)C)C(=O)N[C@@H]([C@@H](C)CC)C(=O)N(C)CC(=O)N(C)[C@H]3C/C=C\CCN(C3=O)[C@@H](Cc3ccc(C)cc3)C(=O)N(C)CC(=O)N[C@@H](CCc3ccc(C(F)(F)F)c(Cl)c3)C(=O)N2C1 [PP2158]	A (a compound having 10 or more and less than 20 is denoted as A)	AA (a compound having 20 or more is denoted as AA)
CCO[C@@H]1C[C@H]2C(=O)NC3(CC(C)(C)C3)C(=O)N(C)[C@@H](C(CC)CC)C(=O)N(C)[C@H](C(=O)N3CCCC3)CC(=O)N(C)[C@@H](COC)C(=O)N[C@@H]([C@@H](C)CC)C(=O)N(C)CC(=O)N(C)[C@H]3C/C=C\CCN(C3=O)[C@@H](Cc3ccc(C(F)(F)F)cc3)C(=O)N(C)CC(=O)N[C@@H](CCc3ccc(C(F)(F)F)c(OC)c3)C(=O)N2C1 [PP2159]	A (a compound having 10 or more and less than 20 is denoted as A)	AA (a compound having 20 or more is denoted as AA)
CCC[C@H]1C(=O)N[C@@H]([C@@H](C)CC)C(=O)N(C)CC(=O)N(C)[C@H]2C/C=C\CCN(C2=O)[C@@H](Cc2ccc(C(F)(F)F)cc2)C(=O)N(C)CC(=O)N[C@@H](CCc2ccc(C(F)(F)F)c(OC)c2)C(=O)N2C[C@H](OCC)C[C@H]2C(=O)NC2(CC(C)(C)C2)C(=O)N(C)[C@@H](C(CC)CC)C(=O)N(C)[C@H](C(=O)N(C)C)CC(=O)N1C [PP2160]	A (a compound having 10 or more and less than 20 is denoted as A)	A (a compound having 10 or more and less than 20 is denoted as A)
CCO[C@@H]1C[C@H]2C(=O)NC3(CC(C)(C)C3)C(=O)N(C)[C@@H](C(CC)CC)C(=O)N(C)[C@H](C(=O)N(C)C)CC(=O)N(C)[C@@H](CC(C)C)C(=O)N[C@@H]([C@@H](C)CC)C(=O)N(C)CC(=O)N(C)[C@H]3C/C=C\CCN(C3=O)[C@@H](Cc3ccc(C(F)(F)F)cc3)C(=O)N(C)CC(=O)N[C@@H](CCc3ccc(C(F)(F)F)c(OC)c3)C(=O)N2C1 [PP2161]	A (a compound having 10 or more and less than 20 is denoted as A)	AA (a compound having 20 or more is denoted as AA)
CCO[C@@H]1C[C@H]2C(=O)NC3(CC(C)(C)C3)C(=O)N(C)[C@@H](C(CC)CC)C(=O)N(C)[C@H](C(=O)N3CCCC3)CC(=O)N(C)[C@@H](C)C(=O)N[C@@H]([C@@H](C)CC)C(=O)N(C)CC(=O)N(C)[C@H]3C/C=C\CCN(C3=O)[C@@H](Cc3ccc(C(F)(F)F)cc3)C(=O)N(C)CC(=O)N[C@@H](CCc3ccc(C(F)(F)F)c(OC)c3)C(=O)N2C1 [PP2163]	A (a compound having 10 or more and less than 20 is denoted as A)	A (a compound having 10 or more and less than 20 is denoted as A)

— patent US20250230193A1, “CYCLIC COMPOUND HAVING SELECTIVE KRAS INHIBITORY EFFECT ON HRAS AND NRAS” (CHUGAI SEIYAKU KABUSHIKI KAISHA, priority 2022, published 2025)
